The test system of assay [1] is Oct4 mRNA. The assay is described as follows: Oct4 mRNA expression by RT-PCR and agarose gel electrophoresis in P19 cells. It is filed as cell-based, mouse. To be noted: 5 μg/mL, 12 h, DMSO control, FIG. 2. Here is the method:
P19 cells were inoculated in a 6-well cell culture plate at a density of 2×10^5 cells/well. After 24 h, DMEM culture medium containing 3% serum were used for replacement. Ethyl p-methoxycinnamate was added to the experimental group to render its final concentration at 5 μg/mL, and a control group was treated with DMSO. After 12 h, the 6-well plate overgrown with monolayer cells was taken out from a cell incubator, and the cells were washed 3 times with pre-cooled PBS. 1 mL of a pre-cooled Trizol solution was added. After vigorous pipetting, the mixture was transferred to an EP tube and allowed to stand at room temperature for 5 min. Then 200 μL of chloroform was added to the mixture, vigorously mixed well for 15 s, and the mixture containing chloroform was allowed to stand at room temperature for 2 min and centrifuged at 12000 rpm at 4° C. for 15 min. An upper aqueous phase was pipetted into another EP tube, and an equal volume of pre-cooled isopropanol was added, and the mixture was inverted several times and allowed to stand at room temperature for 10 min to precipitate RNA. After centrifugation at 12000 rpm for 10 min, the supernatant was discarded, and to the precipitate was added 1 mL of 75% ethanol (prepared by 0.1% DEPC water) for washing, followed by centrifugation at 7500 rpm for 5 min (this step was repeated once). The supernatant was discarded. […]

Assay [2] relates to mouse teratoma cells P19. In words: Formation of microspheres of suspendedly cultured stem cells (soft agar, MTT dyeing). To be noted: 5 μg/mL, P19 cells on 0.5% soft agar, 7 d, compared with DMSO control; FIG. 4. It is filed as cell-based. The protocol: 5 g agar was weighed and placed in a flask, then 100 mL of ultra-pure water was added, and the mixture was mixed well, sealed, and then autoclaved for 30 min. In a super clean bench, 9 mL of pre-heated (50-60° C.) serum-free DMEM culture medium was pipetted into a 10 mL centrifuge tube, then 1 mL of uncooled 5% agar was added, and rapidly mixed well with a pipette, resulting in 0.5% agar. 1 mL of 0.5% agar was pipetted into one well of a 6-well plate and cooled at room temperature for 20-30 min, resulting in a 0.5% soft agar culture medium.
In the super clean bench, D-Hanks was gently added to the surface of the soft agar culture medium, and the D-Hanks was discarded after being gently shaken 2 to 3 times. Cleaning was repeated once. The mouse teratoma cells P19 were gently inoculated on the surface of the soft agar culture medium at a cell density of 4×10^5 cells/well. After the cell inoculation, ethyl p-methoxycinnamate was added to 1 mL of DMEM culture medium containing 10% fetal calf serum, mixed well, and then gently added to the experimental group. A final concentration of ethyl p-methoxycinnamate was 5 μg/mL. The control group was treated with DMSO. […]
On the technique in general: Tetrazolium assays rely on reduction of a dye to a coloured formazan, in cell work by metabolically active cells.

The subject of assay [3] is mouse teratoma cells P19. In words: Formation of microspheres of adherently cultured stem cells. The assay is classed as cell-based. As to conditions: 5 μg/mL, 3% fetal calf serum DMEM, 22 d, compared with control, FIG. 5. The protocol: In a super clean bench, mouse teratoma cells P19 were inoculated in a 6-well plate at a density of 1×10^4 cells/well, and DMEM culture medium containing 10% fetal calf serum was added to result in a final volume of 2 mL. The cell culture plate was gently shaken, so that the cells were uniformly distributed in the cell culture plate, and then placed in a cell incubator to be cultured. After 24 h, the old culture medium were discarded, and 3% fetal calf serum DMEM culture medium containing ethyl p-methoxycinnamate was added, so that the final concentration of ethyl p-methoxycinnamate was 5 μg/mL. The original culture medium was discarded every 24 h, and fresh DMEM culture medium containing 3% fetal calf serum was added, and the final concentration of ethyl p-methoxycinnamate therein was made to be 5 μg/mL likewise. After continuous culture of 22 d, the cells were photographed.

As to `CCOC(=O)C=Cc1ccc(OC)cc1` [ethyl p-methoxycinnamate], in assay [1], the “effect on the expression of Oct4 mRNA” value was “can significantly promote the expression of Oct4 mRNA”. Also, the “formation of microspheres of suspendedly cultured stem cells” value in assay [2] was “the P19 cells can form a higher amount of larger and more typical microspheres”. For the same compound, in assay [3], the “formation of microspheres of adherently cultured stem cells” value is listed as “the P19 cells can form typical microspheres”.

For the origin of these results see patent US10723998B2, “Application of ethyl p-methoxycinnamate and derivatives thereof in maintaining self-renewal and pluripotency of stem cells” (NORTHEAST NORMAL UNIVERSITY, priority 2015, dated 2020).
